In ChEMBL document CHEMBL1151490, “Inhibition of farnesyl protein transferase by new farnesyl phosphonate derivatives of phenylalanine” (Bioorg Med Chem Lett, 1996):

Tests used:
Squalene synthase = target: T1, Squalene synthase (Rattus norvegicus, UniProt Q02769); assay: Inhibition of squalene synthase from rat liver microsomes
T1 sequence (Q02769 whole entry): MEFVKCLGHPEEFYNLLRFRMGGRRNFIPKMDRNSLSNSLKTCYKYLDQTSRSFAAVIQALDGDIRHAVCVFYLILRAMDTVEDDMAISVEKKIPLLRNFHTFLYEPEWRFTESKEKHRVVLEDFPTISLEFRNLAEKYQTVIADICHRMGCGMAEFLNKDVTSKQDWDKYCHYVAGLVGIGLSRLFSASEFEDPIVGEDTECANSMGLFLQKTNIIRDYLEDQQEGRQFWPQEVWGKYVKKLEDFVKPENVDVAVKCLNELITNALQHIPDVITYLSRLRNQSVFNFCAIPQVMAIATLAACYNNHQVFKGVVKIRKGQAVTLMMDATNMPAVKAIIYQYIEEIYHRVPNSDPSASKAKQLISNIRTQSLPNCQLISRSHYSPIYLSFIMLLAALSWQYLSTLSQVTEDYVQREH

[1] = target: T2, Protein farnesyltransferase (Bos taurus, UniProt P29702+P49355); assay: Inhibition of farnesyl protein transferase from bovine brain
[2] = target: T2, Protein farnesyltransferase; assay: Inhibition of Farnesyltransferase from bovine brain

IC50 (Squalene synthase) | IC50 [1] | IC50 [2] | SMILES
1400 nM | > 100000 nM | – | COC(=O)[C@H](Cc1ccccc1)NC(=O)C(C/C=C(\C)CC/C=C(\C)CCC=C(C)C)P(=O)(O)O (some centres undefined)
480 nM | 13000 nM | – | CC(C)=CCC/C(C)=C/CC/C(C)=C/CC(C(=O)NCCc1ccccc1)P(=O)(O)O (centres undefined)
– | – | 80 µM | CC(C)=CCC/C(C)=C/CCCC(P(=O)(O)O)P(=O)(O)O [SQ-34919]

More lines, now with the values behind:

SMILES | IC50 (Squalene synthase) | IC50 [1] | IC50 [2]
CC(C)=CCC/C(C)=C/CC/C(C)=C/CC(C(=O)O)C(=O)NC(Cc1ccccc1)C(=O)O (centres undefined) | 2400 nM | 37000 nM | –
CC(C)=CCC/C(C)=C/CC/C(C)=C/CC(CCP(=O)(O)O)C(=O)N[C@@H](Cc1ccccc1)C(=O)O (some centres undefined) | 4200 nM | 10000 nM | –
CC(C)=CCC/C(C)=C/CC/C(C)=C/C(O)P(=O)(O)O (centres undefined) | 2300 nM | 410 nM | –
CC(C)=CCC/C(C)=C/CC/C(C)=C/CC(C(=O)N[C@@H](Cc1ccccc1)C(=O)O)P(=O)(O)O (some centres undefined) | 1300 nM | 80 nM | –
CC(C)=CCC/C(C)=C/CC/C(C)=C/CC(CP(=O)(O)O)C(=O)N[C@@H](Cc1ccccc1)C(=O)O (some centres undefined) | 90 nM | 170 nM | –
CC(C)=CCC/C(C)=C/CC/C(C)=C/CC(C(=O)N[C@H](Cc1ccccc1)C(=O)O)P(=O)(O)O (some centres undefined) | 500 nM | 980 nM | –
CC(C)=CCC/C(C)=C/CC/C(C)=C/CC(CC(=O)N[C@@H](Cc1ccccc1)C(=O)O)P(=O)(O)O (some centres undefined) | 220 nM | 470 nM | –
